The source of these data is ChEMBL document CHEMBL1156354, “Anti-AIDS agents. 48.(1) Anti-HIV activity of moronic acid derivatives and the new melliferone-related triterpenoid isolated from Brazilian propolis” (J Nat Prod, 2001).

Structures are written as SMILES. Converted amounts (≈) assume the structure as drawn.

The subject of series [1] is Human immunodeficiency virus 1. Kind of series: Antiviral activity against HIV1 3B infected in human H9 cells assessed as inhibition of viral p24 antigen levels after 4 days by ELISA. Format: functional, organism-based. On the technique in general: ELISA stands for enzyme-linked immunosorbent assay.
Series [2] can be described thus: Therapeutic index, ratio of IC50 for human H9 cells to EC50 of HIV1 3B. It is filed as cell-based. To be noted: for Ratio IC50/EC50: h9; for selectivity ratio: H9 cells, HIV-1 3B, read-out: Ratio IC50/EC50.
For series [3], the system named is H9. Kind of series: Cytotoxicity against human H9 cells. It is filed as cell-based.
Setting [4] is: Human immunodeficiency virus 1, 3B, H9, 96 h, read-out: EC50.

On to `CCC(=O)c1ccc(O)c(OC)c1`, for which the EC50 (usually the concentration needed to bring the measured effect to its halfway point) in series [1] (h9) is listed as “Not Active”. In addition, the “Ratio IC50/EC50” value in series [2] was “Not Active”. Also, half-maximal inhibition in series [3] (IC50) required 18.8 µg/mL (≈ 104 µM).

As for `CC1(C)C=C2[C@H]3CC[C@@H]4[C@@]5(C)CC[C@H](OC(=O)CC(C)(C)C(=O)O)C(C)(C)[C@@H]5CC[C@@]4(C)[C@]3(C)CC[C@@]2(C(=O)O)CC1`, in series [1] (setting [4]), the EC50 was found to be 1 µg/mL (≈ 1.71 µM). Moreover, the selectivity ratio in series [2] came out at 18. The IC50 (commonly the concentration at which inhibition is half-maximal) in series [3] is 18.1 µg/mL (≈ 30.9 µM).

Consider `COc1cc(C=O)ccc1O` [VANILLIN], for which the EC50 entry in series [1] (h9) was “Not Active”. Moreover, the “Ratio IC50/EC50” value in series [2] is “Not Active”. Also, the IC50 in series [3] is > 100 µg/mL.

As for `Cc1cn([C@H]2C[C@H](N=[N+]=[N-])[C@@H](CO)O2)c(=O)[nH]c1=O` [ZIDOVUDINE], in series [1] (setting [4]), the EC50 came to 0.00289 µg/mL (≈ 0.0108 µM).

Take `C=C(COC(C)=O)[C@H]1Cc2cc(C(C)=O)ccc2O1`: the EC50 entry in series [1] (h9) was “Not Active”. Besides, the “Ratio IC50/EC50” value in series [2] was “Not Active”. For the same molecule, in series [3], the midpoint of inhibition, the IC50, lay at 2.07 µg/mL (≈ 7.95 µM).

On to `C/C(=C/CC[C@@H](C)[C@H]1CC[C@@]2(C)C3=C(CC[C@]12C)[C@@]1(C)CCC(=O)C(C)(C)[C@@H]1CC3)C(=O)O` [ANWUWEIZONIC ACID], for which, in series [1] (h9), the EC50 entry is recorded as “Not Active”. The “Ratio IC50/EC50” value in series [2] was “Not Active”. In series [3], this molecule had a half-maximal inhibitory concentration (IC50) of 2.14 µg/mL (≈ 4.71 µM).

Turning to `C=C(C)[C@@H]1CC[C@]2(C(=O)O)CC[C@]3(C)[C@H](CC[C@@H]4[C@@]5(C)CCC(=O)C(C)(C)[C@@H]5CC[C@]43C)[C@@H]12` [BETUNOLIC ACID], the EC50 in series [1] (setting [4]) was 0.22 µg/mL (≈ 0.484 µM). In addition, the selectivity ratio in series [2] is 8. Further, half-maximal inhibition in series [3] (IC50) required 1.8 µg/mL (≈ 3.96 µM).

Consider `COc1ccc(/C=C/C=O)cc1OC` [3,4-DIMETHOXY CINNAMALDEHYDE], for which the concentration giving a half-maximal response (EC50) in series [1] (setting [4]) was 2.19 µg/mL (≈ 11.4 µM). In addition, in series [2], the selectivity ratio is 8.62. The 50% inhibitory concentration (IC50) in series [3] worked out at 18.9 µg/mL (≈ 98.3 µM).

For the molecule `CC1(C)CC[C@@]23CC[C@]4(C)[C@@](C=C[C@@H]5[C@@]6(C)CCC(=O)C(C)(C)[C@@H]6CC[C@]54C)(OC2=O)[C@@H]3C1` [MELLIFERONE], in series [1] (h9), the EC50 result was “Not Active”. Also, the “Ratio IC50/EC50” value in series [2] is “Not Active”. Further, the IC50 in series [3] worked out at 0.205 µg/mL (≈ 0.453 µM).

As to `CC1(C)C=C2[C@H]3CC[C@@H]4[C@@]5(C)CCC(=O)C(C)(C)[C@@H]5CC[C@@]4(C)[C@]3(C)CC[C@@]2(C(=O)O)CC1` [MORONIC ACID], in series [1] (setting [4]), the EC50 is < 0.1 µg/mL. Besides, in series [2], the selectivity ratio is > 186. The molecule also returned an IC50 in series [3] of 18.6 µg/mL (≈ 40.9 µM).

`CC1(C)C=C2[C@H]3CC[C@@H]4[C@@]5(C)CC[C@H](O)C(C)(C)[C@@H]5CC[C@@]4(C)[C@]3(C)CC[C@@]2(C(=O)O)CC1` [MOROLIC ACID]: the EC50 in series [1] (setting [4]) was determined as 2.7 µg/mL (≈ 5.91 µM). The selectivity ratio in series [2] worked out at 8.17. In series [3], this molecule gave an IC50 of 22.1 µg/mL (≈ 48.4 µM).
